Data reported in patent US20260097037A1, “FUSED RING COMPOUND HAVING GLP-1 RECEPTOR AGONIST EFFECT” (Shionogi & Co., Ltd., priority 2022, published 2026).

Molecular target: T1, Human GLP-1 receptor stably expressing cells (hGLP-1R/CHO-K1 cells) (Homo sapiens, UniProt P43220)
T1 construct: expressed in transfected cells
Assay: Measurement of GLP-1 receptor agonist activity (cAMP assay)
Assay type: cell-based
Conditions: for Emax: CHO-K1, maximum effect, cAMP with 2 nM human GLP-1 (7-36) = 100%, DMSO only = 0%, read-out: Emax; for EC50: increase in cAMP concentration in hGLP-1R/CHO-K1 cells, 37° C. 1 hour
In short: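 hGLP-1R/CHO-K1 cells (cryopreserved) incubated with compound and forskolin in HBSS with 0.1% BSA, IBMX and RO20-1724, 1 h at 37° C; cAMP read by HTRF. EC50 and Emax from cAMP rise, normalised to 2 nM human GLP-1 (7-36) (100%) and DMSO (0%).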

T1 sequence (P43220 24-463): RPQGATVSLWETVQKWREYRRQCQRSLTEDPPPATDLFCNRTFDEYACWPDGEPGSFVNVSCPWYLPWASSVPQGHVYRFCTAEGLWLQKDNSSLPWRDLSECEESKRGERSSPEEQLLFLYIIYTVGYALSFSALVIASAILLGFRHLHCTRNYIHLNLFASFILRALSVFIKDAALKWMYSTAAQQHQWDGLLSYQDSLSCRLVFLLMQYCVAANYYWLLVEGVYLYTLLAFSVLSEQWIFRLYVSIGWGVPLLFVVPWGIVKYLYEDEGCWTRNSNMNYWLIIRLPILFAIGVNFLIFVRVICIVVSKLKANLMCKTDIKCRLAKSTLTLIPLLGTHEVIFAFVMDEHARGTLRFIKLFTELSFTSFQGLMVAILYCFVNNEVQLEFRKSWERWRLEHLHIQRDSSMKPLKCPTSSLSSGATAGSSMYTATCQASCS

SMILES	Emax	EC50
C[C@H]1c2nc(OCc3ccc(Cl)cc3F)c(C#N)cc2CCN1Cc1nc2ccc(C(=O)O)cc2n1C[C@@H]1CCO1 [Compound I-136]	106%	0.339 nM
C[C@H]1c2nc(OCc3ccc(Cl)cc3F)c(C#N)cc2CCN1Cc1nc2ccc(C(=O)O)c(F)c2n1C[C@@H]1CCO1 [Compound I-137]	136%	0.224 nM
C[C@H]1c2nc(OCc3ccc(Cl)cc3F)c(C#N)cc2CCN1Cc1nc2c(F)cc(C(=O)O)cc2n1C[C@@H]1CCO1 [Compound I-138]	128%	0.119 nM
COc1cc(C(=O)O)cc2c1nc(CN1CCc3cc(C#N)c(OCc4ccc(Cl)cc4F)nc3[C@@H]1C)n2C[C@@H]1CCO1 [Compound I-139]	118%	0.0326 nM
C[C@H]1c2nc(OCc3cnn(C)n3)c(C(F)(F)F)cc2CCN1Cc1nc2ccc(C(=O)O)cc2n1C[C@@H]1CCO1 [Compound I-142]	117%	7.33 nM
C[C@H]1c2nc(OCc3ccc(C#N)c4ccoc34)c(C(F)(F)F)cc2CCN1Cc1nc2ccc(C(=O)O)cc2n1C[C@@H]1CCO1 [Compound I-143]	129%	0.0999 nM
COc1cc(C(=O)O)cc2c1nc(CN1CCc3cc(C#N)c(OCc4ccc(Cl)cc4)nc3[C@@H]1C)n2C[C@@H]1CCO1 [Compound I-144]	124%	0.0625 nM
COc1cc(C(=O)O)cc2c1nc(CN1CCc3cc(C#N)c(OCc4ccccc4Cl)nc3[C@@H]1C)n2C[C@@H]1CCO1 [Compound I-145]	109%	0.121 nM
COc1cc(C(=O)O)cc2c1nc(CN1CCc3cc(C#N)c(OCc4cc(F)c(Cl)cc4F)nc3[C@@H]1C)n2C[C@@H]1CCO1 [Compound I-146]	115%	0.0293 nM
COc1cc(C(=O)O)cc2c1nc(CN1CCc3cc(C#N)c(OCc4ccc(Cl)cn4)nc3[C@@H]1C)n2C[C@@H]1CCO1 [Compound I-147]	128%	0.162 nM
C[C@H]1c2nc(OCc3cc(Cl)cs3)c(C(F)(F)F)cc2CCN1Cc1nc2ccc(C(=O)O)cc2n1C[C@@H]1CCO1 [Compound I-148]	99.3%	0.89 nM
C[C@H]1c2nc(OCc3nc(Cl)cs3)c(C(F)(F)F)cc2CCN1Cc1nc2ccc(C(=O)O)cc2n1C[C@@H]1CCO1 [Compound I-149]	97.7%	1.09 nM
COc1cc(C(=O)O)cc2c1nc(CN1CCc3cc(C(F)(F)F)c(NCc4ccc(Cl)cc4F)nc3[C@@H]1C)n2C[C@@H]1CCO1 [Compound I-150]	105%	0.0391 nM
C[C@H]1c2nc(NCc3ccc(Cl)cc3F)c(C(F)(F)F)cc2CCN1Cc1nc2c(Cl)cc(C(=O)O)cc2n1C[C@@H]1CCO1 [Compound I-151]	92.7%	0.0738 nM
C[C@H]1c2nc(NCc3ccc(Cl)cc3F)c(C(F)(F)F)cc2CCN1Cc1nc2c(F)cc(C(=O)O)cc2n1C[C@@H]1CCO1 [Compound I-152]	105%	0.0992 nM
C[C@H]1c2nc(NCc3ccc(Cl)cc3F)c(C(F)(F)F)cc2CCN1Cc1nc2ccc(C(=O)O)c(F)c2n1C[C@@H]1CCO1 [Compound I-153]	112%	0.19 nM
C[C@H]1c2nc(OCc3cc(Cl)n(C)n3)c(C(F)(F)F)cc2CCN1Cc1nc2ccc(C(=O)O)cc2n1C[C@@H]1CCO1 [Compound I-154]	101%	7.04 nM
COc1cc(C(=O)O)cc2c1nc(CN1CCc3cc(C(F)(F)F)c(OCc4cc(Cl)n(C)n4)nc3[C@@H]1C)n2C[C@@H]1CCO1 [Compound I-155]	96.3%	0.87 nM
C[C@H]1c2c(cc(C(F)(F)F)c3c2O[C@@](C)(c2ccc(Cl)cn2)O3)CCN1Cc1nc2c(F)cc(C(=O)O)cc2n1C[C@@H]1CCO1 [Compound I-156]	101%	0.671 nM
C[C@H]1c2c(cc(C(F)(F)F)c3c2O[C@@](C)(c2ccc(Cl)cn2)O3)CCN1Cc1nc2c(Cl)cc(C(=O)O)cc2n1C[C@@H]1CCO1 [Compound I-158]	111%	0.493 nM
COc1cc(C(=O)O)cc2c1nc(CN1CCc3cc(C(F)(F)F)c4c(c3[C@@H]1C)O[C@@](C)(c1ccc(Cl)cn1)O4)n2C[C@@H]1CCO1 [Compound I-159]	99.3%	0.155 nM
Cc1nc(COc2nc3c(cc2C(F)(F)F)CCN(Cc2nc4ccc(C(=O)O)cc4n2C[C@@H]2CCO2)[C@H]3C)no1 [Compound I-160]	66.3%	83.5 nM
Cc1nonc1COc1nc2c(cc1C(F)(F)F)CCN(Cc1nc3ccc(C(=O)O)cc3n1C[C@@H]1CCO1)[C@H]2C [Compound I-161]	73%	28.2 nM
Cc1noc(COc2nc3c(cc2C(F)(F)F)CCN(Cc2nc4ccc(C(=O)O)cc4n2C[C@@H]2CCO2)[C@H]3C)n1 [Compound I-162]	88%	26 nM
C[C@H]1c2nc(OCc3nc4ccccn4n3)c(C(F)(F)F)cc2CCN1Cc1nc2ccc(C(=O)O)cc2n1C[C@@H]1CCO1 [Compound I-163]	83.3%	32.3 nM

SMILES	Emax	EC50
C[C@H]1c2c(cc(C(F)(F)F)c3c2O[C@@](C)(c2ccc(Cl)cc2F)O3)CCN1Cc1nc2c(F)cc(C(=O)O)cc2n1C[C@@H]1CCO1 [Compound I-164]	108%	1.63 nM
C[C@H]1c2nc(OCc3ccc(C#N)c4occc34)c(C(F)(F)F)cc2CCN1Cc1nc2ccc(C(=O)O)cc2n1C[C@@H]1CCO1 [Compound I-165]	111%	0.965 nM
C[C@H]1c2nc(NCc3ccc(Cl)cc3Cl)c(C(F)(F)F)cc2CCN1Cc1nc2c(F)cc(C(=O)O)cc2n1C[C@@H]1CCO1 [Compound I-166]	109%	0.205 nM
COc1cc(C(=O)O)cc2c1nc(CN1CCc3cc(C(F)(F)F)c(NCc4ccc(Cl)cc4)nc3[C@@H]1C)n2C[C@@H]1CCO1 [Compound I-167]	122%	0.052 nM
C[C@H]1c2nc(NCc3ccc(Cl)cc3)c(C(F)(F)F)cc2CCN1Cc1nc2c(Cl)cc(C(=O)O)cc2n1C[C@@H]1CCO1 [Compound I-168]	104%	0.193 nM
C[C@H]1c2nc(NCc3ccc(Cl)cc3)c(C(F)(F)F)cc2CCN1Cc1nc2c(F)cc(C(=O)O)cc2n1C[C@@H]1CCO1 [Compound I-169]	109%	0.191 nM
COc1cc(C(=O)O)cc2c1nc(CN1CCc3cc(C(F)(F)F)c4c(c3[C@@H]1C)O[C@@](C)(c1ccc(Cl)cc1F)O4)n2C[C@@H]1CCO1 [Compound I-170]	105%	0.243 nM
COc1cc(C(=O)O)cc2c1nc(CN1CCc3cc(C(F)(F)F)c(NCc4c(F)cc(Cl)cc4F)nc3[C@@H]1C)n2C[C@@H]1CCO1 [Compound I-171]	124%	0.0152 nM
C[C@H]1c2nc(NCc3c(F)cc(Cl)cc3F)c(C(F)(F)F)cc2CCN1Cc1nc2c(Cl)cc(C(=O)O)cc2n1C[C@@H]1CCO1 [Compound I-172]	106%	0.0353 nM
C[C@H]1c2nc(NCc3c(F)cc(Cl)cc3F)c(C(F)(F)F)cc2CCN1Cc1nc2c(F)cc(C(=O)O)cc2n1C[C@@H]1CCO1 [Compound I-173]	99.7%	0.0889 nM
C[C@H]1c2nc(OCc3ccc(Cl)cc3F)c(C(F)(F)F)nc2CCN1Cc1nc2ccc(C(=O)O)cc2n1C[C@@H]1CCO1 [Compound I-174]	96.3%	0.174 nM
C[C@H]1c2nc(NCc3cc(F)c(Cl)cc3F)c(C(F)(F)F)cc2CCN1Cc1nc2c(F)cc(C(=O)O)cc2n1C[C@@H]1CCO1 [Compound I-175]	107%	0.0831 nM
C[C@H]1c2nc(NCc3cc(F)c(Cl)cc3F)c(C(F)(F)F)cc2CCN1Cc1nc2c(Cl)cc(C(=O)O)cc2n1C[C@@H]1CCO1 [Compound I-176]	112%	0.0693 nM
COc1cc(C(=O)O)cc2c1nc(CN1CCc3cc(C(F)(F)F)c(NCc4cc(F)c(Cl)cc4F)nc3[C@@H]1C)n2C[C@@H]1CCO1 [Compound I-177]	113%	0.0195 nM
C[C@H]1c2nc(OCc3ccc(Cl)cc3F)c(C(F)(F)F)cc2CCN1Cc1nc2c(-c3cnn(C)c3)cc(C(=O)O)cc2n1C[C@@H]1CCO1 [Compound I-178]	99.7%	12.4 nM
Cc1cc(-c2cc(C(=O)O)cc3c2nc(CN2CCc4cc(C(F)(F)F)c(OCc5ccc(Cl)cc5F)nc4[C@@H]2C)n3C[C@@H]2CCO2)on1 [Compound I-179]	96.3%	1.46 nM
C[C@H]1c2nc(OCc3ccc(Cl)c4ccoc34)c(C#N)cc2CCN1Cc1nc2c(Cl)cc(C(=O)O)cc2n1C[C@@H]1CCO1 [Compound I-180]	111%	0.28 nM
C[C@H]1c2nc(OCc3ccccc3Cl)c(C#N)cc2CCN1Cc1nc2c(Cl)cc(C(=O)O)cc2n1C[C@@H]1CCO1 [Compound I-181]	120%	0.531 nM
C[C@H]1c2nc(OCc3ccc(F)cc3Cl)c(C#N)cc2CCN1Cc1nc2c(Cl)cc(C(=O)O)cc2n1C[C@@H]1CCO1 [Compound I-182]	119%	0.173 nM
C[C@H]1c2nc(OCc3c(F)cc(F)cc3F)c(C#N)cc2CCN1Cc1nc2c(Cl)cc(C(=O)O)cc2n1C[C@@H]1CCO1 [Compound I-183]	135%	0.151 nM
C[C@H]1c2nc(OCc3ccc(Cl)cc3F)c(C#N)cc2CCN1Cc1nc2c(Cl)cc(C(=O)O)cc2n1C[C@@H]1CCO1 [Compound I-184]	118%	0.073 nM
C[C@H]1c2nc(OCc3c(F)cc(Cl)cc3F)c(C#N)cc2CCN1Cc1nc2c(Cl)cc(C(=O)O)cc2n1C[C@@H]1CCO1 [Compound I-185]	122%	0.0569 nM
C[C@H]1c2nc(OCc3ccc(OC(F)F)cc3F)c(C#N)cc2CCN1Cc1nc2c(Cl)cc(C(=O)O)cc2n1C[C@@H]1CCO1 [Compound I-186]	123%	0.466 nM
COc1cc(Cl)ccc1COc1nc2c(cc1C#N)CCN(Cc1nc3c(Cl)cc(C(=O)O)cc3n1C[C@@H]1CCO1)[C@H]2C [Compound I-187]	137%	0.04 nM
